# From patent US9447135B2, “Semi-synthetic mithramycin derivatives with anti-cancer activity” (UNIVERSITY OF KENTUCKY RESEARCH FOUNDATION, priority 2012, dated 2016)
# Like-named read-outs stand apart in the source and are kept apart here.
# Tests used:
# [1] = test system: VCaP non-Ewing sarcoma cell line; assay: 72 hour cytotoxicity, VCaP; assay type: cell-based
# Method: (§1) The cytotoxicity of a subgroup of the MTM SA analogues was tested against various Ewing sarcoma cell lines and non-Ewing sarcoma cell lines over a 72 hour period. Each analogue was checked individually with a range of concentrations to determine the IC50 of the molecule in actively growing cell cultures.
# [2] = test system: DU145 non-Ewing sarcoma cell line; assay: 72 hour cytotoxicity, DU145; assay type: cell-based; conditions: non-Ewing sarcoma cell line DU145, 72 hour
# Method: as §1
# [3] = test system: ES-7 Ewing sarcoma cell line; assay: 72 hour cytotoxicity, ES-7; assay type: cell-based; conditions: Ewing sarcoma cell line ES-7, 72 hour
# Method: as §1
# [4] = test system: PC3 non-Ewing sarcoma cell line; assay: 72 hour cytotoxicity, PC3; assay type: cell-based; conditions: non-Ewing sarcoma cell line PC3, 72 hour
# Method: as §1
# [5] = test system: U118 non-Ewing sarcoma cell line; assay: 72 hour cytotoxicity, U118; assay type: cell-based; conditions: non-Ewing sarcoma cell line U118, 72 hour
# Method: as §1
# [6] = test system: ES-8 Ewing sarcoma cell line; assay: 72 hour cytotoxicity, ES-8; assay type: cell-based; conditions: Ewing sarcoma cell line ES-8, 72 hour
# Method: as §1
# [7] = test system: OVCAR-8 non-Ewing sarcoma cell line; assay: 72 hour cytotoxicity, OVCAR-8; assay type: cell-based; conditions: non-Ewing sarcoma cell line OVCAR-8, 72 hour
# Method: as §1
# [8] = test system: RDES Ewing sarcoma cell line; assay: 72 hour cytotoxicity, RDES; assay type: cell-based
# Method: as §1
# [9] = test system: ES-4 Ewing sarcoma cell line; assay: 72 hour cytotoxicity, ES-4; assay type: cell-based; conditions: Ewing sarcoma cell line ES-4, 72 hour
# Method: as §1
# [10] = test system: HCT-116 non-Ewing sarcoma cell line; assay: 72 hour cytotoxicity, HCT-116; assay type: cell-based; conditions: non-Ewing sarcoma cell line HCT-116, 72 hour
# Method: as §1
# [11] = test system: 5838 Ewing sarcoma cell line; assay: 72 hour cytotoxicity, 5838; assay type: cell-based; conditions: Ewing sarcoma cell line 5838, 72 hour
# Method: as §1
# [12] = target: T1, EWS-FLI1 promoter occupancy upstream from Nr0b1, Tgfbr2, and Rcor1 genes in TC32 cells (Homo sapiens, UniProt Q01543+Q01844); assay: EWS-FLI1 promoter occupancy by ChIP-RTPCR; assay type: cell-based
# T1 construct: containing the 5′ region of EWS (Ewing sarcoma breakpoint region 1) and the 3′ ETS region of Fli-1; N-terminal part of EWS (EWSR1, Q01844), natural fusion partner from the translocation; endogenous in cells; host or cells: TC32 Ewing sarcoma cells
# Method: (§2) Studies were conducted using MTM and lead analogs (mithramycin-SK (MTM-SK), mithramycin-SA-tryptophan (MTM-SA-Trp), and mithramycin-SA-phenylalanine (MTM-SA-Phe)). EWS-FLI1 promoter occupancy was investigated using chromatin immune precipitation real time PCR (ChIP-RTPCR). The effect of drug treatment on expression of genes controlled by EWSFLI1 was evaluated by quantitative real-time PCR (qRT-PCR) (FIG. 11). The effect of treatment with 100 nM of drug for 24 hours on cell cycle distribution was also compared among analogs (FIG. 12(b)). […] In addition, the maximum tolerated dose (MTD) and the effect of treatment on plasma total-calcium were used to assess relative toxicity in mice.
# (§3) EWS-FLI1 promoter occupancy upstream from Nr0b1, Tgfbr2, and Rcor1 genes was evaluated in Ewing sarcoma cells (TC32 cells) by ChIP-RTPCR. […] (FIG. 11). […] (FIG. 12(a)). Furthermore, the effect of drug treatment appears to lead to differences in cell-cycle progression. […] (FIG. 12(b)).
# [13] = test system: ES-3 Ewing sarcoma cell line; assay: 72 hour cytotoxicity, ES-3; assay type: cell-based; conditions: Ewing sarcoma cell line ES-3, 72 hour
# Method: as §1
# Ewing cell lines = assay: In vitro efficacy, GI50 (72-hr) in Ewing cell lines; assay type: cell-based; conditions: Ewing cell lines (n=8)
# [14] = test system: TC32 Ewing sarcoma cell line; assay: 72 hour cytotoxicity, TC32; assay type: cell-based; conditions: Ewing sarcoma cell line TC32, 72 hour
# Method: as §1
# [15] = test system: SK-ES-1 Ewing sarcoma cell line; assay: 72 hour cytotoxicity, SK-ES-1; assay type: cell-based; conditions: Ewing sarcoma cell line SK-ES-1, 72 hour
# Method: as §1
# [16] = test system: TC71 Ewing sarcoma cell line; assay: 72 hour cytotoxicity, TC71; assay type: cell-based; conditions: Ewing sarcoma cell line TC71, 72 hour
# Method: as §1
# [17] = test system: A673 Ewing sarcoma cell line; assay: 72 hour cytotoxicity, A673; assay type: cell-based; conditions: Ewing sarcoma cell line A673, 72 hour
# Method: as §1
# [18] = test system: ES-2 Ewing sarcoma cell line; assay: 72 hour cytotoxicity, ES-2; assay type: cell-based; conditions: Ewing sarcoma cell line ES-2, 72 hour
# Method: as §1
# [19] = test system: C42 non-Ewing sarcoma cell line; assay: 72 hour cytotoxicity, C42; assay type: cell-based; conditions: non-Ewing sarcoma cell line C42, 72 hour
# Method: as §1
# [20] = test system: A549, human non-small cell lung cancer cells; assay: 72 hour cytotoxicity, A549 (resazurin); assay type: cell-based; conditions: non-Ewing sarcoma cell line A549, 72 hour
# Method: The cytotoxic effects of the side chain modifications of SA were investigated in order to determine whether the modification were beneficial to the drug structure. All cytotoxicity assays were performed with A549, human non-small cell lung cancer cells. A549 cells were cultured as specified from ATCC at 37° C., 5% CO2. The cells were added to a 96 well plate (5,000 cells/well) and permitted to attach for 24 h. After 24 h culture media were replaced with the side chain modified MTM SA derivative containing media at differing concentrations. The cells were incubated with the drug containing media for 72 hrs total (n=8). Cell viability was determined using a resazurin assay that signifies mitochondrial metabolic activity in living cells. […] of a 1 mM resazurin solution in PBS was added to the control and analogue-treated cells at the end of the treatment period. Cell viability was determined three hours later by reading the fluorescence at 560 nm (Ex)/590 nm (Em). The fluorescence signals were quantified using a Spectramax M5 plate reader (Molecular Devices) equipped with a SoftMaxPro software. Cytotoxicity was determined by calculating the half maximal inhibitory concentration (IC50) of each sample.
# as §1
# [21] = test system: genes controlled by EWS-FLI1 in TC32 cells; assay: Expression of genes controlled by EWS-FLI1 by qRT-PCR; assay type: cell-based; conditions: 6 hours, dose dependent
# Method: FIG. 11A, FIG. 11B, FIGS. 11C, 11D, and 11E provide a series of graphs showing that MTM analogs have increased cytoxicity and distinct cell cycle distribution in Ewing sarcoma. The graphs show relative gene expression in TC32 cells treated with MTM analogs. Three genes controlled by the EWS-FLI1 transcription factor were investigated by qRT-PCR at four different treatment concentrations for 6 hours. CCK served as a negative control.
# as §2, §3
# [22] = test system: Ewing sarcoma (TC32, 5838, SKES1) and non-Ewing (A459 (lung) and PC3 (prostate)) cancer cell lines; assay: Selectivity assay, Ewing sarcoma versus non-Ewing cell panel (72 hr cytotoxicity)
# TC32 cells = assay: Cell cycle distribution, FACS analysis; assay type: cell-based; conditions: 100 nM of drug for 24 hours
# Method: FIG. 12(b) is a FACs analysis of TC32 cells treated with 100 nM of drug for 24 hours.
# as §2, §3
# [23] = 72 hour cytotoxicity, RH30; assay type: cell-based; conditions: Ewing sarcoma cell line RH30, 72 hour; read-out: IC50 (nM) RH 30
# Method: as §1
# [24] = test system: several cancer cell lines; conditions: cited from earlier work
# T1 sequence (Q01844+Q01543 fused): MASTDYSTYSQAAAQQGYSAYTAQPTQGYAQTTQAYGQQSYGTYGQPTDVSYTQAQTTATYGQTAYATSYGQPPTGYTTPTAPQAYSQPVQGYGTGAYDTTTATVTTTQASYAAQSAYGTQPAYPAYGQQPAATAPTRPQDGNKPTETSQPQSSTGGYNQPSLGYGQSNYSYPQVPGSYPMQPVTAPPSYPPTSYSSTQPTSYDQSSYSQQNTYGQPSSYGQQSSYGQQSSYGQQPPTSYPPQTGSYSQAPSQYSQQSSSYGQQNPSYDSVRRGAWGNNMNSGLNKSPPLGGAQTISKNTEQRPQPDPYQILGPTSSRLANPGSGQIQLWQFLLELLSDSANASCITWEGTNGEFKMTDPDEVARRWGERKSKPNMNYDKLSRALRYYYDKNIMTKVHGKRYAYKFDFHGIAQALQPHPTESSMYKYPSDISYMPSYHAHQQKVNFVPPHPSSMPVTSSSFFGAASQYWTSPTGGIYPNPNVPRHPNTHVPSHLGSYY
smiles,measurement,setting,value
COC(=O)C(Cc1cccc2[nH]ccc12)NC(=O)[C@@H](OC)[C@@H]1Cc2cc3cc(OC4CC(OC5CC(O)C(O)C(C)O5)C(O)C(C)O4)c(C)c(O)c3c(O)c2C(=O)[C@H]1OC1CC(OC2CC(OC3CC(C)(O)C(O)C(C)O3)C(O)C(C)O2)C(O)C(C)O1 (some centres unmarked) [MTMSA-Trp],IC50,[1]; Homo sapiens,20 nM
same,IC50,"[2]; Homo sapiens, DU-145",31 nM
same,IC50,[3],41 nM
same,IC50,[4],45 nM
same,IC50,[5],56 nM
same,IC50,[6],40 nM
same,IC50,[7]; Homo sapiens,72 nM
same,IC50,[8]; RD-ES,39 nM
same,IC50,[9],33 nM
same,IC50,[10]; Homo sapiens,23 nM
same,IC50,[11],10 nM
same,effect on FLI1 binding to promoters (ChIP-RTPCR),[12],the most destabilizing
same,IC50,[13],64 nM
same,potency (GI50) among Ewing cell lines compared to other analogs,Ewing cell lines,relatively higher potency (lower GI50)
same,IC50,"[14]; Homo sapiens, TC-32",18 nM
same,IC50,"[15]; Homo sapiens, SK-ES1",38 nM
same,IC50,[16]; TC-71,34 nM
same,IC50,[17]; Homo sapiens,44 nM
same,IC50,[18],63 nM
same,IC50,[19],96 nM
same,IC50,[20]; Homo sapiens,87 nM
same,rank-order of efficiency of mRNA down-regulation (qRT-PCR),[21],MTM-SA-Trp>MTM=MTM-SK
same,selectivity against Ewing sarcoma cells relative to non-Ewing cells,"[22]; FIG. 9, right panel",9 fold
same,more potent than MTM,"[22]; against Ewing sarcoma cells, relative to MTM",about 3 fold
same,higher selectivity than MTM against Ewing sarcoma relative to non-Ewing cell lines,"[22]; relative to MTM, 72 hr",3 fold
same,cell cycle distribution,TC32 cells,increased S-phase accumulation
same,IC50,[23],48 nM
"CO[C@@H]([C@@H]1Cc2cc3cc(O[C@H]4C[C@@H](O[C@H]5C[C@@H](O)[C@H](O)[C@@H](C)O5)[C@H](O)[C@@H](C)O4)c(C)c(O)c3c(O)c2C(=O)[C@H]1O[C@H]1C[C@@H](O[C@H]2C[C@@H](O[C@H]3C[C@](C)(O)[C@H](O)[C@@H](C)O3)[C@@H](O)[C@@H](C)O2)[C@H](O)[C@@H](C)O1)[C@@H](O)C(C)=O [MTMSK, reference compound]",IC50,[1],36 nM
same,IC50,[2]; read-out: IC50 (nM) DU 145,32 nM
same,IC50,[3],42 nM
same,IC50,[4],37 nM
same,IC50,[6],44 nM
same,activity compared to the parent MTM,[24],increased activity
same,IC50,[7],29 nM
same,IC50,[8],40 nM
same,IC50,[9],32 nM
same,IC50,[10],31 nM
same,IC50,[11],23 nM
same,effect on FLI1 binding to promoters (ChIP-RTPCR),[12],mostly stabilize FLI1
same,IC50,[13],56 nM
same,IC50,[14]; read-out: IC50 (nM) TC 32,23 nM
same,IC50,[15],25 nM
same,IC50,[16],31 nM
same,IC50,[17],37 nM
same,IC50,[18],39 nM
same,IC50,[19],89 nM
same,IC50,[20],30 nM
same,rank-order of efficiency of mRNA down-regulation (qRT-PCR),[21],MTM-SA-Trp>MTM=MTM-SK
same,cell cycle distribution,TC32 cells,primarily in G1/G2 phase
same,IC50,[23],62 nM
